This experiment concerns Nematospiroides dubius. Nature of the experiment: Evaluation (Efficacy) Test in Mice, Nematospiroides dubius. It counts as in vivo. The following applies: for inhibition in vivo at 0.05 %: 0.05 % diet; for inhibition in vivo at 0.1 %: 0.1 % diet. From the text: The primary target parasite of this test is Nematospiroides dubius (Family: Heligmosomidae), which is phylogenetically related to certain economically important parasites of domestic and farm animals. Mice are orally inoculated with 20 to 30 infective N. dubius larvae. Mixed infections are obtained by subsequent inoculation with Aspicularis tetraptera and Hymenolepis nana. Eighteen days after inoculation the mice are divided into groups of four. Each group receives one compound at a specified dose rate, either as a single gavage dose or fed continually in the feed. Four groups of five mice each are utilized as infected, untreated controls. […] Those mice receiving single oral doses (SOD) or a single subcutaneous injection (Sc) of 5 mg./kg. to 100 mg./kg. of animal body weight of the compound under test are treated 22 days after inoculation. Eight days after start of treatment (drug diet) and 4 days post treatment (single dose SOD or Sc), the mice are necropsied, the worms recovered and counted. Percent efficacy for Nematospiroides is calculated using the formula: % Efficacy Equals [formula]
The diet used in the test procedures is a standard commercial mouse chow containing meat and bone meal, dried skimmed milk, wheat germ meal, fish meal, animal liver meal, dried beet pulp, ground extended corn, oat middlings, soybean meal, dehydrated alfalfa meal, cane molasses. animal fat preserved with BHA, vitamin B-12 supplement, calcium panthotenate, choline chloride, folic acid, riboflavin supplement, brewer's dried yeast, thiamine, niacin, vitamin A supplement, D activated plant sterol, vitamin E supplement, dicalcium phosphate, iodized salt, ferric ammonium citrate, iron oxide, manganous oxide, cobalt carbonate, copper oxide and zinc oxide; and the desired level of test compound.
When the drug is administered as a single oral dose, the drug is weighed and suspended in 0.2% agar, thoroughly mixed and orally introduced at the required volume.

The mark [1] stands for this setting: Heligmosomoides polygyrus, po, 168 h, drug diet, 7 days, read-out: % Efficacy N.d.
Setting [2] is: Heligmosomoides polygyrus, po, single oral dose, read-out: % Efficacy N.d.
[3] abbreviates: Heligmosomoides polygyrus, po, 168 h, drug diet, 0.025 % diet, 7 days, read-out: % Efficacy N.d.
Where [4] appears, read: Heligmosomoides polygyrus, po, single oral dose, 25 mg/kg, read-out: % Efficacy N.d.
Setting [5] is: Heligmosomoides polygyrus, sc, subcutaneous, 10 mg/kg, read-out: % Efficacy N.d.
[6] abbreviates: Heligmosomoides polygyrus, sc, subcutaneous, 25 mg/kg, read-out: % Efficacy N.d.
The mark [7] stands for this setting: drug diet, 0.006 % diet, 7 days.
Setting [8] is: Heligmosomoides polygyrus, po, 168 h, drug diet, 0.006 % diet, 7 days, read-out: % Efficacy N.d.
Where [9] appears, read: Heligmosomoides polygyrus, po, 168 h, drug diet, 0.0125 % diet, 7 days, read-out: % Efficacy N.d.
The mark [10] stands for this setting: drug diet, 0.0125 % diet, 7 days.
[11] abbreviates: single oral dose, 10 mg/kg, dosage weight is that of the cation.
The mark [12] stands for this setting: single oral dose, 25 mg/kg, dosage weight is that of the cation.
The mark [13] stands for this setting: Heligmosomoides polygyrus, po, single oral dose, 10 mg/kg, read-out: % Efficacy N.d.

Like-named read-outs stand apart in the source and are kept apart here.

Take `Cc1ccc(P(=C[P+](c2ccccc2)(c2ccccc2)c2ccccc2)(c2ccccc2)c2ccccc2)cc1`: under setting [1], the inhibition in vivo at 0.05 % was found to be 59% and the inhibition in vivo at 0.1 % amounted to 67%. Under setting [2], the inhibition in vivo at 50 mg/kg was found to be 31% and the inhibition in vivo at 100 mg/kg was 67%.

On to `Cc1ccc([P+](C[P+](c2ccccc2)(c2ccccc2)c2ccccc2)(c2ccccc2)c2ccccc2)cc1` [P,P,P,P',P'-Pentaphenyl P'-p-tolyl-P,P' Methylenediphosphonium Dibromide], for which, under setting [3], the inhibition in vivo at 0.025 % is 60%. In addition, under setting [1], the inhibition in vivo at 0.05 % is 80%. In addition, under setting [4], the inhibition in vivo at 25 mg/kg worked out at 57%. Moreover, under setting [2], the inhibition in vivo at 50 mg/kg stood at 64% and the inhibition in vivo at 100 mg/kg was determined as 77%.

As to `c1ccc(C[P+](C[P+](Cc2ccccc2)(c2ccccc2)c2ccccc2)(c2ccccc2)c2ccccc2)cc1` [Type I, R1 Benzyl, X Br, Methylenebis(benzyldiphenyl)phosphonium Dibromide], under setting [1], the inhibition in vivo at 0.05 % stood at 73%. Also, under setting [2], the inhibition in vivo at 50 mg/kg was 79% and the inhibition in vivo at 100 mg/kg stood at 80%.

Turning to `c1ccc([P+](C[P+](c2ccccc2)(c2ccccc2)c2ccccc2)(c2ccccc2)c2ccccc2)cc1` [Type I, R1 Phenyl, X Br, Methylenebis Triphenylphosphonium Dibromide], under setting [3], the inhibition in vivo at 0.025 % was 100%. Also, for the setting “Heligmosomoides polygyrus, po, 168 h, drug diet, 0.125 % diet, 7 days, read-out: % Efficacy N.d.”, the inhibition in vivo at 0.125 % worked out at 94%. Further, under setting [5], the inhibition in vivo at 10 mg/kg worked out at 42%. Also, the inhibition in vivo at 25 mg/kg under setting [6] was 84%. The “% Efficacy N.d.” value under setting [7] was determined as 78%; the “% Efficacy N.d.” value (single oral dose, 5 mg/kg) worked out at 49%; the “% Efficacy N.d.” value (single oral dose, 10 mg/kg) is listed as 51.5%; the “% Efficacy N.d.” value (single oral dose, 25 mg/kg) is listed as 95.5%.

Regarding `c1ccc([P+](C[P+](c2ccccc2)(c2ccccc2)c2ccccc2)(c2ccccc2)c2ccccc2)cc1` [Type I, R1 Phenyl, X Cl, methylenebis triphenylphosphonium dichloride], under setting [8], the inhibition in vivo at 0.006 % was found to be 85%. Also, the inhibition in vivo at 0.0125 % under setting [9] was determined as 100%. Further, under setting [4], the inhibition in vivo at 25 mg/kg turned out to be 96.5%. In addition, the “% Efficacy N.d.” value amounted to 85% (single oral dose, 5 mg/kg) and 84% (single oral dose, 10 mg/kg).

For the compound `Cc1ccc([P+](C[P+](c2ccccc2)(c2ccccc2)c2ccc(C)cc2)(c2ccccc2)c2ccccc2)cc1` [Type I, R1 p-tolyl, X Br, Methylenebis(diphenyl-p-tolyl) Phosphonium Dibromide], the inhibition in vivo at 0.1 % under setting [1] worked out at 57%. For the same compound, under setting [2], the inhibition in vivo at 50 mg/kg was 57% and the inhibition in vivo at 100 mg/kg came out at 75%.

For `C(=P(c1ccccc1)(c1ccccc1)c1ccccc1)[P+](c1ccccc1)(c1ccccc1)c1ccccc1` [Type II, R1 Phenyl, X 2,6-Diiodo-4-nitrophenol] [Triphenyl[(triphenylphosphoranylidene)methyl]-phosphonium-2,6-diiodo-4-nitrophenolate], the “% Efficacy N.d.” value amounted to 41% under setting [7]; 86.5% under setting [10]; 99.5% (drug diet, 0.025 % diet, 7 days); 36.7% (single oral dose, 5 mg/kg, dosage weight is that of the cation); 44.7% under setting [11]; 88.5% under setting [12].

Regarding `C(=P(c1ccccc1)(c1ccccc1)c1ccccc1)[P+](c1ccccc1)(c1ccccc1)c1ccccc1.[Br-]` [Type II, R1 Phenyl, X Br, Triphenyl[(triphenylphosphoranylidene)methyl]-phosphonium Bromide], the inhibition in vivo at 5 mg/kg (Heligmosomoides polygyrus, po, single oral dose, 5 mg/kg, read-out: % Efficacy N.d.) is 32.5%. The inhibition in vivo at 10 mg/kg runs as follows: under setting [13], 65%; under setting [5], 74%. The inhibition in vivo at 25 mg/kg under setting [6] is 94%. Moreover, the “% Efficacy N.d.” value was determined as 94% under setting [7]; 100% under setting [10]; 89% (single oral dose, 25 mg/kg).

Turning to `C(=P(c1ccccc1)(c1ccccc1)c1ccccc1)[P+](c1ccccc1)(c1ccccc1)c1ccccc1` [Type II, R1 Phenyl, X Br^-.CuBr2], the inhibition in vivo at 0.025 % under setting [3] amounted to 100%. Further, the inhibition in vivo at 10 mg/kg (Heligmosomoides polygyrus, po, single oral dose, 10 mg/kg, dosage weight is that of the cation, read-out: % Efficacy N.d.) came to 43%. For the same compound, for the setting “Heligmosomoides polygyrus, po, single oral dose, 25 mg/kg, dosage weight is that of the cation, read-out: % Efficacy N.d.”, the inhibition in vivo at 25 mg/kg was 76%. The “% Efficacy N.d.” value under setting [10] is 51%.

On to `C(=P(c1ccccc1)(c1ccccc1)c1ccccc1)[P+](c1ccccc1)(c1ccccc1)c1ccccc1.[Cl-]` [Type II, R1 Phenyl, X Cl, Triphenyl[(triphenylphosphoranylidene)methyl]-phosphonium Chloride], for which the inhibition in vivo at 25 mg/kg under setting [4] amounted to 96%. Moreover, the “% Efficacy N.d.” value under setting [7] was 91%; the “% Efficacy N.d.” value under setting [10] turned out to be 100%; the “% Efficacy N.d.” value (single oral dose, 10 mg/kg) was 51%.

For the compound `C(=P(c1ccccc1)(c1ccccc1)c1ccccc1)[P+](c1ccccc1)(c1ccccc1)c1ccccc1.[I-]` [Type II, R1 Phenyl, X I, Triphenyl[(triphenylphosphoranylidene)methyl]-phosphonium Iodide], the “% Efficacy N.d.” value was found to be 89% under setting [7]; 100% under setting [10]; 26% (single oral dose, 5 mg/kg); 67% (single oral dose, 10 mg/kg); 91% (single oral dose, 25 mg/kg).

`C(=P(c1ccccc1)(c1ccccc1)c1ccccc1)[P+](c1ccccc1)(c1ccccc1)c1ccccc1` [Type II, R1 Phenyl, X not printed]: under “Heligmosomoides polygyrus, po, single oral dose, 5 mg/kg, dosage weight is that of the cation, read-out: % Efficacy N.d.”, the inhibition in vivo at 5 mg/kg stood at 49%. In addition, the “% Efficacy N.d.” value is, setting by setting: under setting [7], 85%; under setting [10], 100%; under setting [11], 63%; under setting [12], 94%.

As for `Cc1ccc(P(=C[P+](c2ccccc2)(c2ccccc2)c2ccc(C)cc2)(c2ccccc2)c2ccccc2)cc1` [Type II, R1 p-tolyl, X Br], the inhibition in vivo at 0.1 % under setting [1] turned out to be 53%. For the same compound, under setting [2], the inhibition in vivo at 50 mg/kg amounted to 36% and the inhibition in vivo at 100 mg/kg stood at 89%.

Turning to `C=CCC(=P(c1ccccc1)(c1ccccc1)c1ccccc1)[P+](c1ccccc1)(c1ccccc1)c1ccccc1` [Type II, R2 Allyl, X Br], the inhibition in vivo at 0.0125 % under setting [9] was determined as 33%. Moreover, the inhibition in vivo at 0.025 % under setting [3] worked out at 100%. Moreover, the inhibition in vivo at 10 mg/kg under setting [13] turned out to be 60%. Besides, the inhibition in vivo at 25 mg/kg under setting [4] turned out to be 86%. Further, the inhibition in vivo at 50 mg/kg under setting [2] is 100%.

Consider `c1ccc(CC(=P(c2ccccc2)(c2ccccc2)c2ccccc2)[P+](c2ccccc2)(c2ccccc2)c2ccccc2)cc1` [Type II, R2 Benzyl, X Br], for which, under setting [9], the inhibition in vivo at 0.0125 % was 89%. For the same compound, the inhibition in vivo at 0.025 % under setting [3] was determined as 96%. Further, the inhibition in vivo at 0.05 % under setting [1] worked out at 100%. For the same compound, under setting [4], the inhibition in vivo at 25 mg/kg came to 72%. In addition, the inhibition in vivo at 50 mg/kg under setting [2] was 100%.

As to `CSCC(=P(c1ccccc1)(c1ccccc1)c1ccccc1)[P+](c1ccccc1)(c1ccccc1)c1ccccc1` [Type II, R2 CH3 --S--CH2 --, X Cl, [2-(methylthio)-1-(triphenylphosphoranylidene)-ethyl]triphenylphosphonium Chloride], under setting [3], the inhibition in vivo at 0.025 % stood at 56%. Moreover, under setting [1], the inhibition in vivo at 0.05 % stood at 65% and the inhibition in vivo at 0.1 % was 97%.

For the compound `CCC(=P(c1ccccc1)(c1ccccc1)c1ccccc1)[P+](c1ccccc1)(c1ccccc1)c1ccccc1` [Type II, R2 Ethyl, X I], the inhibition in vivo at 0.006 % under setting [8] came out at 46%. In addition, the inhibition in vivo at 0.0125 % under setting [9] was determined as 74%. Also, the inhibition in vivo at 0.025 % under setting [3] worked out at 100%. Under setting [13], the inhibition in vivo at 10 mg/kg is 68%. In addition, the inhibition in vivo at 25 mg/kg under setting [4] came to 75%. In addition, under setting [2], the inhibition in vivo at 50 mg/kg came out at 85%.

As to `IC(=P(c1ccccc1)(c1ccccc1)c1ccccc1)[P+](c1ccccc1)(c1ccccc1)c1ccccc1` [Type II, R2 I, X I], the inhibition in vivo at 0.006 % under setting [8] was found to be 54%. Also, the inhibition in vivo at 0.0125 % under setting [9] came to 98%. Moreover, the inhibition in vivo at 0.025 % under setting [3] came out at 100%. In addition, under setting [2], the inhibition in vivo at 50 mg/kg worked out at 70%.

Values taken from patent US3957978A, “Phosphonium anti-parasitics” (American Cyanamid Company, priority 1975, dated 1976).
